According to patent publication US10874743B2, “IRAK degraders and uses thereof” (Kymera Therapeutics, Inc., priority 2017, dated 2020):
Where “and” joins values, the source holds several entries; their conditions need not be identical. Equal entries are not always repeated. Where two headings read alike, the source gives them in different places.

Test: Pharmacokinetics in CD-1 mice (plasma concentrations, PK parameters)
Format: in vivo
Settings: for AUC(0-t): read-out: AUC0-last; for MRT inf: read-out: MRT0-inf; for MRT last: read-out: MRT0-last; for Vd: read-out: Vdss
Method: Pharmacokinetics for I-127, I-172 and I-210 were determined in Sprague Dawley rats or CD-1 mice by dosing intravenous (IV), subcutaneous (SC) or per oral (PO) using facility SOPs and sampling plasma at required time points. Species, formulation, route of administration and time points samples are listed below for each compound.
Compounds were extracted from plasma, injected on reverse phase HPLC, eluted with a gradient from 5% to 95% acetonitrile in water and quantified by mass spectrometry with internal standard. Data are expressed in ng compound per mL of plasma.

[1] = CD-1, mouse, plasma, iv, 2 mg/kg, mouse (CD1) iv 2 mg/kg, Mean IV
[2] = CD-1, mouse, plasma, sc, 30 mg/kg, mouse (CD1) sc 30 mg/kg, Mean SC
[3] = CD-1, mouse, plasma, sc, 30 mg/kg, mouse (CD1) sc 30 mg/kg, individual M07-M09
[4] = mouse (CD1) iv 2 mg/kg, Mean IV
[5] = mouse (CD1) iv 2 mg/kg, individual M01-M03, 2 mg/kg
[6] = mouse (CD1) sc 30 mg/kg, individual M07-M09
[7] = mouse (CD1) sc 30 mg/kg, individual M07-M09, 30 mg/kg

`NC(=O)c1nn(-c2ccc(C(=O)NCCOCCOCCNc3cccc4c3C(=O)N(C3CCC(=O)NC3=O)C4=O)cc2)cc1NC(=O)c1coc(-c2ccnc(NCC(F)(F)F)c2)n1` (stereo not shown) [I-127, N-[3-carbamoyl-1-[4-[2-[2-[2-[[2-(2,6-dioxo-3-piperidyl)-1,3-dioxo-isoindolin-4-yl]amino]ethoxy]ethoxy]ethylcarbamoyl]phenyl]pyrazol-4-yl]-2-[2-(2,2,2-trifluoroethylamino)-4-pyridyl]oxazole-4-carboxamide] showed a concentration at 5 min (CD-1, mouse, plasma, iv, 2 mg/kg, mouse (CD1) iv 2 mg/kg, 5 min, Mean IV, read-out: concentrations) of 1290 ng/mL, a concentration at 0.5 h (CD-1, mouse, plasma, iv, 2 mg/kg, mouse (CD1) iv 2 mg/kg, 0.500 h, Mean IV, read-out: concentrations) of 102 ng/mL and a concentration at 1 h (CD-1, mouse, plasma, iv, 2 mg/kg, mouse (CD1) iv 2 mg/kg, 1.00 h, Mean IV, read-out: concentrations) of 49.7 ng/mL. The concentration at 2 h (CD-1, mouse, plasma, iv, 2 mg/kg, mouse (CD1) iv 2 mg/kg, 2.00 h, Mean IV, read-out: concentrations) was 31.7 ng/mL, the concentration at 4 h (CD-1, mouse, plasma, iv, 2 mg/kg, mouse (CD1) iv 2 mg/kg, 4.00 h, Mean IV, read-out: concentrations) was 12.2 ng/mL and the concentration at 6 h (CD-1, mouse, plasma, iv, 2 mg/kg, mouse (CD1) iv 2 mg/kg, 6.00 h, Mean IV, read-out: concentrations) was 5.31 ng/mL. For the same molecule, the concentration at 24 h (CD-1, mouse, plasma, iv, 2 mg/kg, mouse (CD1) iv 2 mg/kg, 24.0 h, individual M01-M03, read-out: concentrations) was 2.2 ng/mL, the clearance [1] was 84.9 mL/min/kg and the half-life [1] was 3.65 h. The AUC(0-inf) (CD-1, mouse, plasma, iv, 2 mg/kg, mouse (CD1) iv 2 mg/kg, Mean IV, read-out: AUC0-inf) was 511 ng·h/mL, the AUC(0-t) [1] was 496 ng·h/mL and the C0 (CD-1, mouse, plasma, iv, 2 mg/kg, mouse (CD1) iv 2 mg/kg, Mean IV, read-out: C0) was 2160 ng/mL. It also gave an MRT inf [1] of 1.54 h, an MRT last [1] of 1.1 h and a Vd [1] of 6.25 L/kg. It also gave a Vd (CD-1, mouse, plasma, iv, 2 mg/kg, mouse (CD1) iv 2 mg/kg, individual M01-M03) of 5.73 L/kg, an AUC(0-t) [2] of 39.8 ng·h/mL and a Cmax (CD-1, mouse, plasma, sc, 30 mg/kg, mouse (CD1) sc 30 mg/kg, Mean SC, read-out: Cmax) of 2.91 ng/mL. For the same molecule, the MRT last [2] was 11.3 h, the Tmax (CD-1, mouse, plasma, sc, 30 mg/kg, mouse (CD1) sc 30 mg/kg, Mean SC, read-out: Tmax) was 2.67 h and the half-life [3] was 39.2 h. It also gave an AUC(0-inf) (CD-1, mouse, plasma, sc, 30 mg/kg, mouse (CD1) sc 30 mg/kg, individual M07-M09, read-out: AUC0-inf) of 144 ng·h/mL, an AUC(0-t) [3] of 33 ng·h/mL and an MRT inf [3] of 54.2 h. For the same molecule, the MRT last [3] was 11.7 h, the Tmax (CD-1, mouse, plasma, sc, 30 mg/kg, mouse (CD1) sc 30 mg/kg, individual M07-M09, read-out: Tmax) was 2 h and the bioavailability (CD-1, plasma, mouse (CD1) sc 30 mg/kg, Mean SC) was 0.534%. For the same molecule, the concentrations (mouse (CD1) iv 2 mg/kg, 5 min, individual M01-M03, 2 mg/kg) was 2310 ng/mL and 831 ng/mL and 738 ng/mL, the concentrations (mouse (CD1) iv 2 mg/kg, 0.500 h, individual M01-M03, 2 mg/kg) was 166 ng/mL and 58.7 ng/mL and 82.1 ng/mL and the concentrations (mouse (CD1) iv 2 mg/kg, 1.00 h, individual M01-M03, 2 mg/kg) was 91 ng/mL and 22.3 ng/mL and 35.8 ng/mL. The concentrations (mouse (CD1) iv 2 mg/kg, 2.00 h, individual M01-M03, 2 mg/kg) was 51.5 ng/mL and 12.7 ng/mL and 30.9 ng/mL, the concentrations (mouse (CD1) iv 2 mg/kg, 4.00 h, individual M01-M03, 2 mg/kg) was 18.6 ng/mL and 7.08 ng/mL and 10.9 ng/mL and the concentrations (mouse (CD1) iv 2 mg/kg, 6.00 h, individual M01-M03, 2 mg/kg) was 8.13 ng/mL and 3.38 ng/mL and 4.42 ng/mL. For the same molecule, the concentrations (mouse (CD1) iv 2 mg/kg, 24.0 h, individual M01-M03, 2 mg/kg) was “BQL”, the AUCExtra [4] was 2.97% and the AUMCExtra [4] was 29.9%. The AUC0-last [5] was 896 ng·h/mL and 278 ng·h/mL and 316 ng·h/mL, the AUC(0-inf) [5] was 919 ng·h/mL and 288 ng·h/mL and 325 ng·h/mL and the AUCExtra [5] was 2.57% and 3.55% and 2.80%. The AUMCExtra [5] was 33.8% and 34.9% and 20.8%, the C0 [5] was 3910 ng/mL and 1412 ng/mL and 1145 ng/mL and the Cl [5] was 36.3 mL/min/kg and 116 mL/min/kg and 103 mL/min/kg. The MRT0-inf [5] was 2.63 h and 0.916 h and 1.08 h, the MRT0-last [5] was 1.79 h and 0.618 h and 0.882 h and the T1/2 [5] was 7.43 h and 2.09 h and 1.43 h. The Tlast [5] was 24.0 h and 6.00 h (2×), the Vdss [5] was 6.36 L/kg and 6.67 L/kg and the concentrations (mouse (CD1) po 30 mg/kg, 0.500 h, individual M04-M06) was “BQL”. The concentrations (mouse (CD1) po 30 mg/kg, 1.00 h, individual M04-M06) was “BQL”, the concentrations (mouse (CD1) po 30 mg/kg, 2.00 h, individual M04-M06) was “BQL” and the concentrations (mouse (CD1) po 30 mg/kg, 4.00 h, individual M04-M06) was “BQL”. For the same molecule, the concentrations (mouse (CD1) po 30 mg/kg, 6.00 h, individual M04-M06) was “BQL”, the concentrations (mouse (CD1) po 30 mg/kg, 24.0 h, individual M04-M06) was “BQL” and the concentrations (mouse (CD1) sc 30 mg/kg, 0.500 h, Mean SC) was 1.81 ng/mL. For the same molecule, the concentrations (mouse (CD1) sc 30 mg/kg, 0.500 h, individual M07-M09, 30 mg/kg) was 1.29 ng/mL and 2.28 ng/mL and 1.85 ng/mL, the concentrations (mouse (CD1) sc 30 mg/kg, 1.00 h, Mean SC) was 2 ng/mL and the concentrations (mouse (CD1) sc 30 mg/kg, 1.00 h, individual M07-M09, 30 mg/kg) was 1.87 ng/mL and 2.51 ng/mL and 1.61 ng/mL. The concentrations (mouse (CD1) sc 30 mg/kg, 2.00 h, Mean SC) was 2.88 ng/mL, the concentrations (mouse (CD1) sc 30 mg/kg, 2.00 h, individual M07-M09, 30 mg/kg) was 2.21 ng/mL and 4.61 ng/mL and 1.82 ng/mL and the concentrations (mouse (CD1) sc 30 mg/kg, 4.00 h, Mean SC) was 1.59 ng/mL. The concentrations (mouse (CD1) sc 30 mg/kg, 4.00 h, individual M07-M09, 30 mg/kg) was 1.01 ng/mL and 1.86 ng/mL and 1.9 ng/mL, the concentrations (mouse (CD1) sc 30 mg/kg, 6.00 h, Mean SC) was 1.8 ng/mL and the concentrations (mouse (CD1) sc 30 mg/kg, 6.00 h, individual M07-M09, 30 mg/kg) was 1.41 ng/mL and 2.82 ng/mL and 1.18 ng/mL. For the same molecule, the concentrations (mouse (CD1) sc 30 mg/kg, 24.0 h, Mean SC) was 1.38 ng/mL, the concentrations (mouse (CD1) sc 30 mg/kg, 24.0 h, individual M07-M09, 30 mg/kg) was 1.3 ng/mL and 1.58 ng/mL and 1.26 ng/mL and the Tlast (mouse (CD1) sc 30 mg/kg, Mean SC) was 24.0 h. The AUCExtra [6] was 62.1%, the AUMCExtra [6] was 92.4% and the Tlast [6] was 24.0 h. For the same molecule, the AUC0-last [7] was 54.5 ng·h/mL and 31.7 ng·h/mL, the Cmax [7] was 2.21 ng/mL and 4.61 ng/mL and 1.90 ng/mL and the MRT0-last [7] was 10.9 h and 11.4 h. The Tmax [7] was 4.00 h.
